Assay [1] deals with ζ-globin gene (hbae5). The assay is described as follows: qPCR of ζ-globin gene (hbae5) expression in zebrafish embryos. The conditions noted are these: 5 μmol/L, 24 hours. The format is in vivo. The procedure: (§1) K562 cells were cultured in RPMI 1640 medium supplemented with 10% (v/v) fetal bovine serum; Hemin was dissolved into 0.2 mol/L NaOH solution, and the working concentration for treating K562 cells is 20 μmol/L; Triac, T3 and T4 were dissolved into dimethyl sulfoxide (DMSO), and the working concentration for treating K562 cells and zebrafish embryos is 20 μmol/L and 5 μmol/L, respectively.
After treatment with Triac, T3 and T4 for 24 hours, respectively, zebrafish embryos were collected. TRIzol reagent (Invitrogen) was used to extract total RNA, then a reverse transcription kit (ReverTra Ace, TOYOBO) was used to synthesize cDNA, and finally, a SYBRGreen Realtime PCR Master Mix (TOYOBO) reagent was used to perform quantitative PCR.
(§2) The quantitative PCR reaction system is:
(§3) The quantitative PCR reaction conditions are: • hot start: 95° C., 10 minutes; • denaturation: 95° C., 10 seconds; and • annealing/extension: 60° C., 30 seconds. • 40 circles. Analysis of a […]

For assay [2], the system named is ζ-globin gene (hbae5). The assay is described as follows: Whole-mount mRNA in situ hybridization (WISH) of ζ-globin gene (hbae5) in zebrafish embryos. Particulars: 5 μmol/L, 24 hours. Format: in vivo. The protocol: as §1
After treatment with Triac, T3 and T4 for 24 hours, respectively, zebrafish embryos were fixed by 4% paraformaldehyde. The expression of ζ-globin gene (hbae5) was detected by Whole-mount mRNA in situ hybridization (WISH).

The next assay relates to ζ-globin gene (HBZ). As to the kind of experiment: qPCR of ζ-globin gene (HBZ) expression in hemin-treated K562 cells. Format: cell-based, human. Particulars: hemin plus Triac 20 μmol/L, 72 hours. The procedure:
as §1
K562 cells were treated with hemin or hemin plus Triac for 72 hours, respectively, centrifugation was performed at 2000 rpm for 5 minutes to collect cells, a TRIzol reagent (Invitrogen) was used to extract total RNA, then a reverse transcription kit (ReverTra Ace, TOYOBO) was used to synthesize cDNA, and finally, a SYBR Green Realtime PCR Master Mix (TOYOBO) reagent was used to perform quantitative PCR.
as §2, §3
On the technique in general: In qPCR the cycle at which signal appears reflects the starting amount.

`N[C@@H](Cc1cc(I)c(Oc2ccc(O)c(I)c2)c(I)c1)C(=O)O` [T3, 3,3′,5-Triiodo-L-thyronine]: the “expression of ζ-globin gene (hbae5) up-regulated (qPCR)” value in the assay with ζ-globin gene (hbae5) [1] is 31 folds. Also, in the assay on ζ-globin gene (hbae5) [2], the “expression of ζ-globin gene (hbae5) by WISH” value (shortened to “expression … by WISH”) is on record as “significantly induce the expression”.

Turning to `O=C(O)Cc1cc(I)c(Oc2ccc(O)c(I)c2)c(I)c1` [Triac, 2-[4-(4-Hydroxy-3-iodophenoxy)-3,5-diiodophenyl] acetic acid], the “expression of ζ-globin gene (hbae5) up-regulated (qPCR)” value in the assay with ζ-globin gene (hbae5) [1] was determined as 76 folds. Moreover, the “expression of ζ-globin gene (HBZ) up-regulated (qPCR)” value with ζ-globin gene (HBZ) worked out at 50.9 folds. In addition, the “expression … by WISH” value with ζ-globin gene (hbae5) [2] is given as “significantly induce the expression”.

As for `N[C@@H](Cc1cc(I)c(Oc2cc(I)c(O)c(I)c2)c(I)c1)C(=O)O` [T4, 3,3′,5,5′-tetraiodothyronine], the “expression of ζ-globin gene (hbae5) up-regulated (qPCR)” value in the assay with ζ-globin gene (hbae5) [1] is reported as 41 folds. Moreover, the “expression … by WISH” value in the assay with ζ-globin gene (hbae5) [2] is “significantly induce the expression”.

The values above are taken from patent publication US12569460B2, “Application of thyroid hormones and thyroid hormone analogues to preparation of drugs for treating sickle-cell disease” (RUIJIN HOSPITAL, SHANGHAI JIAO TONG UNIVERSITY SCHOOL OF …, priority 2020, dated 2026).
